The target in test [1] is T1, Yersinia protein tyrosine phosphatase (YOP) (Yersinia enterocolitica, UniProt P15273).
T1 construct: purchased Upstate Biotechnology
The class given is biochemical.

In another test the target is T2, Src kinase (Homo sapiens, UniProt P12931).
T2 construct: purchased Upstate Biotechnology
As to the kind of experiment: Solution phase FRET assay of Src kinase activity (rhodamine labelled SHPS-1 peptide / SHP2-GFP). Conditions: 10 µM staurosporine added to the reaction prior to Src enzyme; 3 units of Src kinase, 2 hours at 37°C. The class given is biochemical. As to the method: SHPS-1 peptide labelled with rhodamine is phosphorylated using 3 units of Src kinase (Upstate Biotechnology) in a 40 µl reaction containing 100 µM peptide, 50 mM Tris-HCl pH7.2, 1 mM ATP, 10 mM MgCl2, 10 mM β-mercaptoethanol, 0.1 mg/ml BSA and 0.015%(v/v) Brij 35, over a period of 2 hours at 37°C. Non-phosphorylated control samples are prepared under identical conditions in the absence of the kinase.
SHP2-GFP is diluted to 0.5 µM in assay buffer (50 mM Tris-HCl pH7.2, 10 mM β-mercaptoethanol, 0.5mg/ml BSA, 0.015% Brij 35). 98 µl of this solution is used per assay. Initial readings of the fluorescence of the SHP2-GFP construct are made using 485nm excitation wavelength and 520nm emission wavelength. Rhodamine labelled peptide (2µl of above phosphorylation reactions) is added to the SHP2-GFP solution and formation of FRET followed in real-time by measuring the decrease in fluorescence emission of SHP2-GFP at 520 nm as shown in Figure 13.
Phosphonlation of the peptide is prevented by inhibiting the enzyme, Src, with the potent kinase inhibitor staurosporine. Phosphorylation of the rhodamine labelled SHPS-1 peptide is performed as described above in the presence and absence of 10 µM staurosporine added to the reaction prior to Src enzyme.

T1 sequence (P15273 whole entry): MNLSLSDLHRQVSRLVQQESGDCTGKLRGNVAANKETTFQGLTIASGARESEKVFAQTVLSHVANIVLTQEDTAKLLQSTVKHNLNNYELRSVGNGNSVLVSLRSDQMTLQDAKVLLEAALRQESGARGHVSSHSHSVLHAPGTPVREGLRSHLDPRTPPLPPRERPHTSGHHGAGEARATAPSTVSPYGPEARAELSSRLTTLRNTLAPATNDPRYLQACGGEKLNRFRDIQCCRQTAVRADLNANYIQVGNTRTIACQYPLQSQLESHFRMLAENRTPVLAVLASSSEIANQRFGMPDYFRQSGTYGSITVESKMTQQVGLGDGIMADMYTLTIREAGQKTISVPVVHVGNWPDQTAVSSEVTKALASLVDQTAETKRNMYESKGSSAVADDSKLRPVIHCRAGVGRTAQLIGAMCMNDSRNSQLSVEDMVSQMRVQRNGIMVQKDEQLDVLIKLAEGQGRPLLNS
T2 sequence (P12931 whole entry): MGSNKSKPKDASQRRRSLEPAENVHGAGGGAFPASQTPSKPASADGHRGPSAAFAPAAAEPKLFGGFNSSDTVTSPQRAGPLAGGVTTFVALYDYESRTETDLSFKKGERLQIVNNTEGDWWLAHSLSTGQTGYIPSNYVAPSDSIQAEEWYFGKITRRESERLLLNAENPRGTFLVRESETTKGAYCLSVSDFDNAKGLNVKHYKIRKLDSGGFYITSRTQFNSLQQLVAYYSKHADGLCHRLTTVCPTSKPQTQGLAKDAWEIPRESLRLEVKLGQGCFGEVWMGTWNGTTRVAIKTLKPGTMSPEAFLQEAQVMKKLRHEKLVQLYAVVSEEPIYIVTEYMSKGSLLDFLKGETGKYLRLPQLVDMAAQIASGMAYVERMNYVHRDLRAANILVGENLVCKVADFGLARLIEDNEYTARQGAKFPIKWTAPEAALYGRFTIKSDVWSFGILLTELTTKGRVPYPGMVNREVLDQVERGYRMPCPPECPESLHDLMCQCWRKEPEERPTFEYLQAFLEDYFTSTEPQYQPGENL

The IC50 is the concentration needed to halve the response being measured. Read a low IC50 as greater potency in that assay. `[Na+].[Na+].[Na+].[O]=[V]([O-])([O-])[O-]` [sodium orthovanadate, Sodium orthovanadate] had a half-maximal inhibitory concentration (IC50) in test [1] of 0.25 µM.
Regarding `CN[C@@H]1C[C@H]2O[C@@](C)([C@@H]1OC)n1c3ccccc3c3c4c(c5c6ccccc6n2c5c31)C(=O)NC4` [staurosporine], the “Inhibition of Src phosphorylation of SHPS-1 peptide (formation of FRET partnership with SHP2-GFP)” value on Src kinase was “fail to form a FRET partnership”.

The values are drawn from patent publication EP1163363B1 (priority 1999, dated 2000).
